Laboratory results published in PubChem BioAssay AID248 (DTP/NCI, 2004).
Toxic doses and inconclusive results are not listed. No stated cut-off is given here; in the data, active means T/C of 150% or more; inactive means T/C below 125%.

Tested on: L1210 leukemia ip in BDF1 mice, survival T/C
Experiment: NCI In Vivo Anticancer Drug Screen. Data for tumor model L1210 Leukemia (intraperitoneal) in B6D2F1 (BDF1) mice
Settings: endpoint: mean survival time, higher = longer survival
Outline: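 Ratio derived from survival: compound-dosed mice over vehicle-dosed mice, all bearing a transplantable tumor.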

[1] = dose: 50.0 mg/kg/injection, schedule: Q01DX001 (ip), vehicle: carboxymethylcellulose (CMC)
[2] = dose: 100.0 mg/kg/injection, schedule: Q01DX001 (ip), vehicle: carboxymethylcellulose (CMC)
[3] = dose: 200.0 mg/kg/injection, schedule: Q01DX001 (ip), vehicle: carboxymethylcellulose (CMC)
[4] = dose: 50.0 mg/kg/injection, schedule: Q01DX001 (ip), vehicle: saline
[5] = dose: 100.0 mg/kg/injection, schedule: Q01DX001 (ip), vehicle: saline
[6] = dose: 200.0 mg/kg/injection, schedule: Q01DX001 (ip), vehicle: saline
[7] = dose: 400.0 mg/kg/injection, schedule: Q01DX001 (ip), vehicle: saline
[8] = dose: 100.0 mg/kg/injection, schedule: Q01DX001 (ip), vehicle: Klucel (hydroxypropylcellulose) (HPC)
[9] = dose: 200.0 mg/kg/injection, schedule: Q01DX001 (ip), vehicle: Klucel (hydroxypropylcellulose) (HPC)
[10] = dose: 100.0 mg/kg/injection, schedule: Q04DX003 (ip), vehicle: saline with Tween-80
[11] = dose: 200.0 mg/kg/injection, schedule: Q04DX003 (ip), vehicle: saline with Tween-80
[12] = dose: 400.0 mg/kg/injection, schedule: Q04DX003 (ip), vehicle: saline with Tween-80
[13] = dose: 100.0 mg/kg/injection, schedule: Q04DX002 (ip), vehicle: saline
[14] = dose: 200.0 mg/kg/injection, schedule: Q04DX002 (ip), vehicle: saline
[15] = dose: 400.0 mg/kg/injection, schedule: Q04DX002 (ip), vehicle: saline

Measured: T/C

CC(=O)C1=CC2(OC3CCC(O)(C(=O)CO)C(C)O3)C(=O)c3c(cc4cccc(O)c4c3O)CC2C(O)C1O (stereo not given)
inactive: dose: 3.12 mg/kg/injection, schedule: Q01DX001 (ip), vehicle: carboxymethylcellulose (CMC) 114 % of control | dose: 6.25 mg/kg/injection, schedule: Q01DX001 (ip), vehicle: carboxymethylcellulose (CMC) 100 % of control | dose: 12.5 mg/kg/injection, schedule: Q01DX001 (ip), vehicle: carboxymethylcellulose (CMC) 104 % of control | dose: 25.0 mg/kg/injection, schedule: Q01DX001 (ip), vehicle: carboxymethylcellulose (CMC) 106 % of control | [1] 115 % of control | dose: 50.0 mg/kg/injection, schedule: Q01DX015 (ip), vehicle: carboxymethylcellulose (CMC) 102 % of control | [2] 111 % of control | dose: 100.0 mg/kg/injection, schedule: Q01DX015 (ip), vehicle: carboxymethylcellulose (CMC) 102 % of control | [3] 100 % of control | dose: 200.0 mg/kg/injection, schedule: Q01DX015 (ip), vehicle: carboxymethylcellulose (CMC) 93 % of control | dose: 400.0 mg/kg/injection, schedule: Q01DX001 (ip), vehicle: carboxymethylcellulose (CMC) 97 % of control | dose: 400.0 mg/kg/injection, schedule: Q01DX015 (ip), vehicle: carboxymethylcellulose (CMC) 93 % of control

Cc1ncc(C(N)=O)c2c1OC(C)(C)OC2
inactive: [4] 100 % of control | [5] 97 % of control | [6] 94 % of control | [7] 88 % of control

CCCCCCCCCCCCCCCCOC(=O)C[n+]1cccc(C(N)=O)c1
inactive: dose: 100.0 mg/kg/injection, schedule: Q04DX003 (ip), vehicle: saline 92 % of control | dose: 200.0 mg/kg/injection, schedule: Q04DX003 (ip), vehicle: saline 99 % of control

CNS(=O)(=O)c1ccc(NC(=O)CI)cc1
inactive: dose: 3.0 mg/kg/injection, schedule: Q01DX009 (ip), vehicle: Klucel (hydroxypropylcellulose) (HPC) 112 % of control | dose: 6.0 mg/kg/injection, schedule: Q01DX009 (ip), vehicle: Klucel (hydroxypropylcellulose) (HPC) 96 % of control | dose: 12.0 mg/kg/injection, schedule: Q01DX009 (ip), vehicle: Klucel (hydroxypropylcellulose) (HPC) 108 % of control | dose: 12.5 mg/kg/injection, schedule: Q01DX001 (ip), vehicle: other 96 % of control | dose: 12.5 mg/kg/injection, schedule: Q04DX003 (ip), vehicle: other 93 % of control | dose: 25.0 mg/kg/injection, schedule: Q01DX001 (ip), vehicle: other 96 % of control | dose: 50.0 mg/kg/injection, schedule: Q01DX001 (ip), vehicle: other 88 % of control

CC(=O)Oc1ccc2c(c1N=NN(C)C)CCC1C2CCC2(C)C(=O)CCC12 (stereo not given)
inactive: [8] 98 % of control | [9] 104 % of control

ICc1cc(CI)c(CI)cc1CI
inactive: [10] 92 % of control | [11] 91 % of control | [12] 91 % of control

CCCCCCCCCC[As](=O)(O)CCCCCCCCCC
inactive: [4] 107 % of control | [5] 103 % of control | [6] 103 % of control | [7] 115 % of control

CCN(CC)c1ccc2c(c1)Cc1ccccc1-2
inactive: [10] 100 % of control | [11] 98 % of control | [12] 100 % of control

COC(=O)COc1ccc(Cl)cc1Cl
inactive: [13] 100 % of control | [14] 107 % of control | [15] 100 % of control

CCCCCCCCC(CCCCCCCC)C1CCCCC1
inactive: dose: 100.0 mg/kg/injection, schedule: Q01DX001 (ip), vehicle: saline with Tween-80 98 % of control | dose: 200.0 mg/kg/injection, schedule: Q01DX001 (ip), vehicle: saline with Tween-80 95 % of control | dose: 400.0 mg/kg/injection, schedule: Q01DX001 (ip), vehicle: saline with Tween-80 93 % of control

CC(=O)CCC(C(=O)c1ccccc1)c1ccccc1 (stereo not given)
inactive: dose: 222.0 mg/kg/injection, schedule: Q01DX Z (ip), vehicle: methylcellulose (MC) 101 % of control

Cc1n(Cc2ccccc2)c2c([n+]1C)C(=O)c1ccccc1C2=O
inactive: dose: 0.5 mg/kg/injection, schedule: Q01DX001 (ip), vehicle: saline 102 % of control | dose: 1.0 mg/kg/injection, schedule: Q01DX001 (ip), vehicle: saline 102 % of control | dose: 1.0 mg/kg/injection, schedule: Q04DX003 (ip), vehicle: Klucel (hydroxypropylcellulose) (HPC) 100 % of control | dose: 2.0 mg/kg/injection, schedule: Q01DX001 (ip), vehicle: saline 106 % of control | dose: 2.0 mg/kg/injection, schedule: Q04DX003 (ip), vehicle: Klucel (hydroxypropylcellulose) (HPC) 91 % of control | dose: 4.0 mg/kg/injection, schedule: Q01DX001 (ip), vehicle: saline 108 % of control | dose: 4.0 mg/kg/injection, schedule: Q04DX003 (ip), vehicle: Klucel (hydroxypropylcellulose) (HPC) 96 % of control | dose: 125.0 micrograms/kg/injection, schedule: Q01DX009 (ip), vehicle: Klucel (hydroxypropylcellulose) (HPC) 97 % of control | dose: 250.0 micrograms/kg/injection, schedule: Q01DX009 (ip), vehicle: Klucel (hydroxypropylcellulose) (HPC) 97 % of control | dose: 500.0 micrograms/kg/injection, schedule: Q01DX009 (ip), vehicle: Klucel (hydroxypropylcellulose) (HPC) 90 % of control | dose: 1000.0 micrograms/kg/injection, schedule: Q01DX009 (ip), vehicle: Klucel (hydroxypropylcellulose) (HPC) 101 % of control | dose: 2000.0 micrograms/kg/injection, schedule: Q01DX009 (ip), vehicle: Klucel (hydroxypropylcellulose) (HPC) 95 % of control

COC(=O)C1Cc2ccccc2/C1=N\O (stereo not given)
inactive: dose: 50.0 mg/kg/injection, schedule: Q01DX009 (ip), vehicle: saline with Tween-80 94 % of control | dose: 100.0 mg/kg/injection, schedule: Q01DX009 (ip), vehicle: saline with Tween-80 94 % of control | dose: 200.0 mg/kg/injection, schedule: Q01DX009 (ip), vehicle: saline with Tween-80 94 % of control

CN=C1N[N+]2=CCSCC2(C)S1 (stereo not given)
inactive: dose: 0.2 mg/kg/injection, schedule: Q03HX024 (ip), vehicle: saline 90 % of control | dose: 0.39 mg/kg/injection, schedule: Q03HX024 (ip), vehicle: saline 98 % of control | dose: 0.78 mg/kg/injection, schedule: Q03HX024 (ip), vehicle: saline 98 % of control | dose: 1.56 mg/kg/injection, schedule: Q03HX024 (ip), vehicle: saline 95 % of control | dose: 3.13 mg/kg/injection, schedule: Q03HX024 (ip), vehicle: saline 105 % of control

C[N+]1(C2CCCCC2)CCCCC1
inactive: dose: 10.0 mg/kg/injection, schedule: Q01DX001 (ip), vehicle: acetone 96 % of control | dose: 10.0 mg/kg/injection, schedule: Q01DX001 (ip), vehicle: saline 98 % of control | dose: 20.0 mg/kg/injection, schedule: Q01DX001 (ip), vehicle: acetone 95 % of control | dose: 20.0 mg/kg/injection, schedule: Q01DX001 (ip), vehicle: saline 95 % of control | dose: 40.0 mg/kg/injection, schedule: Q01DX001 (ip), vehicle: acetone 102 % of control | dose: 40.0 mg/kg/injection, schedule: Q01DX001 (ip), vehicle: saline 93 % of control | dose: 75.0 mg/kg/injection, schedule: Q01DX001 (ip), vehicle: saline 101 % of control

S=C(N/N=C\c1ccc2c(c1)OCO2)Nc1ccc2cn[nH]c2c1
inactive: [1] 97 % of control | [2] 100 % of control | [3] 91 % of control

NP1(N)=NP(N)(N)=NP(N)(N)=N1
inactive: [13] 90 % of control | [14] 93 % of control | [15] 97 % of control

CN(C)S(=O)(=O)c1ccc(NC(=O)OCc2ccccc2)cc1
inactive: [5] 96 % of control | [6] 94 % of control | [7] 92 % of control

CC(=O)Nc1ccc(N=Nc2ccccc2)cc1
inactive: [8] 100 % of control | [9] 100 % of control | dose: 400.0 mg/kg/injection, schedule: Q01DX001 (ip), vehicle: Klucel (hydroxypropylcellulose) (HPC) 96 % of control

CN(Cc1ccccc1)Cc1cc(CO)ccc1O
inactive: [2] 103 % of control | [3] 105 % of control

C#CC(C)(C)N1CCCCC1
inactive: dose: 25.0 mg/kg/injection, schedule: Q04DX003 (ip), vehicle: Klucel (hydroxypropylcellulose) (HPC) 110 % of control | dose: 50.0 mg/kg/injection, schedule: Q04DX003 (ip), vehicle: Klucel (hydroxypropylcellulose) (HPC) 106 % of control

CC(CC(C)(C)C)C(=O)Cl (stereo not given)
inactive: [5] 95 % of control | [6] 92 % of control | [7] 108 % of control
